Measurements published in PubChem BioAssay (NCI).
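Here, GI50 denotes the concentration required for 50% inhibition of growth. The concentration for full growth arrest is given as TGI.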

Assays:
Experiment in all cases: growth of human tumour cells (NCI), 384-well format
M14 melanoma = system: M14 melanoma
KM12 colon = system: KM12 colon
HOP-92 NSCLC = system: HOP-92 NSCLC
MCF7 breast = system: MCF7 breast
A549 NSCLC = system: A549 NSCLC
NCI-H322M lung = system: NCI-H322M lung
SK-MEL-28 melanoma = system: SK-MEL-28 melanoma
HS 578T breast = system: HS 578T breast
OVCAR-8 ovarian = system: OVCAR-8 ovarian
RXF 393 renal = system: RXF 393 renal
OVCAR-5 ovarian = system: OVCAR-5 ovarian
T-47D breast = system: T-47D breast
TK-10 renal = system: TK-10 renal
EKVX NSCLC = system: EKVX NSCLC
SR leukemia = system: SR leukemia
UACC-62 melanoma = system: UACC-62 melanoma
CAKI-1 renal = system: CAKI-1 renal
HCT-116 colon = system: HCT-116 colon
HT29 colon = system: HT29 colon
NCI-H460 NSCLC = system: NCI-H460 NSCLC
ACHN renal = system: ACHN renal
HOP-62 NSCLC = system: HOP-62 NSCLC
RPMI-8226 leukemia = system: RPMI-8226 leukemia
BT-549 breast = system: BT-549 breast
SNB-75 CNS = system: SNB-75 CNS
IGROV1 ovarian = system: IGROV1 ovarian
LOX IMVI melanoma = system: LOX IMVI melanoma
HCC-2998 colon = system: HCC-2998 colon
DU-145 prostate = system: DU-145 prostate
SK-MEL-5 melanoma = system: SK-MEL-5 melanoma
NCI/ADR-RES ovarian = system: NCI/ADR-RES ovarian
OVCAR-4 ovarian = system: OVCAR-4 ovarian
MALME-3M melanoma = system: MALME-3M melanoma
NCI-H522 lung = system: NCI-H522 lung
NCI-H23 lung = system: NCI-H23 lung
MOLT-4 leukemia = system: MOLT-4 leukemia
SF-295 CNS = system: SF-295 CNS
MDA-MB-231 breast = system: MDA-MB-231 breast
SNB-19 CNS = system: SNB-19 CNS
PC-3 prostate = system: PC-3 prostate
MDA-MB-435 melanoma = system: MDA-MB-435 melanoma
SF-268 CNS = system: SF-268 CNS
A498 renal = system: A498 renal
UACC-257 melanoma = system: UACC-257 melanoma
HCT-15 colon = system: HCT-15 colon
SN12C renal = system: SN12C renal
SF-539 CNS = system: SF-539 CNS
MDA-MB-468 breast = system: MDA-MB-468 breast
OVCAR-3 ovarian = system: OVCAR-3 ovarian
U251 glioblastoma = system: U251 glioblastoma
HL-60(TB) leukemia = system: HL-60(TB) leukemia
NCI-H226 lung = system: NCI-H226 lung
SK-OV-3 ovarian = system: SK-OV-3 ovarian
COLO 205 colon = system: COLO 205 colon

SMILES: O=C(O)CCCCC(CCSCc1ccccc1)SCc1ccccc1 (stereo not drawn)
- GI50 (M14 melanoma): > 100 µM
- TGI (M14 melanoma): > 100 µM
- GI50 (KM12 colon): 45.4 µM
- TGI (KM12 colon): > 100 µM
- GI50 (HOP-92 NSCLC): > 100 µM
- TGI (HOP-92 NSCLC): > 100 µM
- GI50 (MCF7 breast): 66.9 µM
- TGI (MCF7 breast): > 100 µM
- GI50 (A549 NSCLC): 44 µM
- TGI (A549 NSCLC): > 100 µM
- GI50 (NCI-H322M lung): 90.6 µM
- TGI (NCI-H322M lung): > 100 µM
- GI50 (SK-MEL-28 melanoma): > 100 µM
- TGI (SK-MEL-28 melanoma): > 100 µM
- GI50 (HS 578T breast): > 100 µM
- TGI (HS 578T breast): > 100 µM
- GI50 (OVCAR-8 ovarian): > 100 µM
- TGI (OVCAR-8 ovarian): > 100 µM
- GI50 (RXF 393 renal): > 100 µM
- TGI (RXF 393 renal): > 100 µM
- GI50 (OVCAR-5 ovarian): > 100 µM
- TGI (OVCAR-5 ovarian): > 100 µM
- GI50 (T-47D breast): 68.7 µM
- TGI (T-47D breast): > 100 µM
- GI50 (TK-10 renal): 50.2 µM
- TGI (TK-10 renal): > 100 µM
- GI50 (EKVX NSCLC): 37.3 µM
- TGI (EKVX NSCLC): > 100 µM
- GI50 (SR leukemia): 22.6 µM
- TGI (SR leukemia): 67.1 µM
- GI50 (UACC-62 melanoma): 75.7 µM
- TGI (UACC-62 melanoma): > 100 µM
- GI50 (CAKI-1 renal): > 100 µM
- TGI (CAKI-1 renal): > 100 µM
- GI50 (HCT-116 colon): 47.5 µM
- TGI (HCT-116 colon): > 100 µM
- GI50 (HT29 colon): 53.7 µM
- TGI (HT29 colon): > 100 µM
- GI50 (NCI-H460 NSCLC): 34.2 µM
- TGI (NCI-H460 NSCLC): > 100 µM
- GI50 (ACHN renal): > 100 µM
- TGI (ACHN renal): > 100 µM
- GI50 (HOP-62 NSCLC): 50.4 µM
- TGI (HOP-62 NSCLC): > 100 µM
- GI50 (RPMI-8226 leukemia): 33.7 µM
- TGI (RPMI-8226 leukemia): 84.4 µM
- GI50 (BT-549 breast): > 100 µM
- TGI (BT-549 breast): > 100 µM
- GI50 (SNB-75 CNS): > 100 µM
- TGI (SNB-75 CNS): > 100 µM
- GI50 (IGROV1 ovarian): 68.3 µM
- TGI (IGROV1 ovarian): > 100 µM
- GI50 (LOX IMVI melanoma): > 100 µM
- TGI (LOX IMVI melanoma): > 100 µM
- GI50 (HCC-2998 colon): 47.5 µM
- TGI (HCC-2998 colon): > 100 µM
- GI50 (DU-145 prostate): 64 µM
- TGI (DU-145 prostate): > 100 µM
- GI50 (SK-MEL-5 melanoma): 33.4 µM
- TGI (SK-MEL-5 melanoma): > 100 µM
- GI50 (NCI/ADR-RES ovarian): > 100 µM
- TGI (NCI/ADR-RES ovarian): > 100 µM
- GI50 (OVCAR-4 ovarian): 59 µM
- TGI (OVCAR-4 ovarian): > 100 µM
- GI50 (MALME-3M melanoma): > 100 µM
- TGI (MALME-3M melanoma): > 100 µM
- GI50 (NCI-H522 lung): 27.6 µM
- TGI (NCI-H522 lung): 73.3 µM
- GI50 (NCI-H23 lung): 50.5 µM
- TGI (NCI-H23 lung): > 100 µM
- GI50 (MOLT-4 leukemia): > 100 µM
- TGI (MOLT-4 leukemia): > 100 µM
- GI50 (SF-295 CNS): 39.3 µM
- TGI (SF-295 CNS): > 100 µM
- GI50 (MDA-MB-231 breast): > 100 µM
- TGI (MDA-MB-231 breast): > 100 µM
- GI50 (SNB-19 CNS): 94 µM
- TGI (SNB-19 CNS): > 100 µM
- GI50 (PC-3 prostate): 59.6 µM
- TGI (PC-3 prostate): > 100 µM
- GI50 (MDA-MB-435 melanoma): > 100 µM
- TGI (MDA-MB-435 melanoma): > 100 µM
- GI50 (SF-268 CNS): > 100 µM
- TGI (SF-268 CNS): > 100 µM
- GI50 (A498 renal): 42.3 µM
- TGI (A498 renal): > 100 µM
- GI50 (UACC-257 melanoma): 62.2 µM
- TGI (UACC-257 melanoma): > 100 µM
- GI50 (HCT-15 colon): 45.1 µM
- TGI (HCT-15 colon): > 100 µM
- GI50 (SN12C renal): > 100 µM
- TGI (SN12C renal): > 100 µM
- GI50 (SF-539 CNS): > 100 µM
- TGI (SF-539 CNS): > 100 µM
- GI50 (MDA-MB-468 breast): 39.7 µM
- TGI (MDA-MB-468 breast): > 100 µM
- GI50 (OVCAR-3 ovarian): 45.2 µM
- TGI (OVCAR-3 ovarian): > 100 µM
- GI50 (U251 glioblastoma): 45.3 µM
- TGI (U251 glioblastoma): > 100 µM
- GI50 (HL-60(TB) leukemia): 58.8 µM
- TGI (HL-60(TB) leukemia): > 100 µM
- GI50 (NCI-H226 lung): 97.6 µM
- TGI (NCI-H226 lung): > 100 µM
- GI50 (SK-OV-3 ovarian): > 100 µM
- TGI (SK-OV-3 ovarian): > 100 µM
- GI50 (COLO 205 colon): > 100 µM
- TGI (COLO 205 colon): > 100 µM
